Test results taken from PMC11272821, “Mechanistic safety assessment via multi-omic characterisation of systemic pathway perturbations following in vivo MAT2A inhibition” (Archives of Toxicology, 2024).

Assay: 7-day-rat investigative safety study (in-life, histopathology, clinical chemistry)
Format: in vivo
Settings: for liver microscopic examination, hepatocyte glycogen stores: 30 mg/kg, compared with vehicles
Method: All in vivo experimental procedures were conducted in accordance with United Kingdom legislation (Animals (Scientific Procedures) Act, 1986) and were compliant with the ARRIVE guidelines. 8–10 week old male (210–230 g) Crl:WI Han Wistar rats (Charles River Laboratories Ltd, UK) were acclimatised to the facility for 10 days and then randomised to groups based on bodyweight.
Following euthanasia and blood sample collections, animals were necropsied and subjected to gross examination. Samples of liver, brain and heart were collected and fixed in 10% neutral buffered formalin at room temperature for 48 h, followed by routine histology processing (Leica Biosystems) to paraffin embedded wax blocks. Paraffin embedded tissues were cut into […] sections using a microtome (Leica Biosystems) and mounted on glass microscope slides. Tissue sections were stained with hematoxylin and eosin and coverslipped. Stained slides were digitally scanned using an AT2 Scanscope pathology slide scanner (Leica Biosystems) and whole slide images were reviewed by a veterinary pathologist.
A whole blood sample (2.0 mL) was collected into lithium heparin from the caudal vena cava under isoflurane/oxygen anaesthesia immediately prior to euthanasia. Blood samples were centrifuged for 10 min at 4 °C to separate the plasma fraction. Plasma samples were divided into 0.5 mL aliquots and frozen at […] for storage prior to chemistry analysis. Plasma chemistry analysis was performed by Charles River Laboratories (Edinburgh, Scotland) following standard procedures.

## Cn1cc2cc(-c3cc4[nH]nc(C5CC5)c4n(-c4ccc(OC(F)F)cc4)c3=O)ccc2n1 [AZ’9567]
Listed as AZMAT2Ai
  liver microscopic examination, hepatocyte glycogen stores: decrease in glycogen stores
Listed as MAT2Ai
  liver microscopic examination, hepatocyte glycogen stores: minimal decrease in hepatocyte glycogen stores
3, 10, 30 mg/kg BID, 7 days
  clinical observations during the in-life phase: no clinical observations
8-days study
  liver steatosis, histopathology: no histopathological evidence of liver steatosis
All dose groups
  food consumption and body weight: significant drop
Any dose group
  liver pathology: No significant abnormalities detected
Data not shown
  bone marrow histopathology: bone marrow toxicity affecting mostly the erythroid compartment
Loss of both exocrine and endocrine parenchyma, data not shown
  pancreas histopathology: dose-dependent pancreatic necrosis
rat, in vivo
  histopathological examination of the heart or brain: No microscopic abnormalities
Vehicle vs treated animals
  plasma chemistry: markers of liver injury or cholesterol levels: no differences
